In patent publication US5776929A, “Benzodiazepine derivative” (Shionogi & Co., Ltd., priority 1993, dated 1998) one finds IC50 and inhibition in vivo data, which are given here for eleven molecules.

The target of assay [1] is T1, gastrin receptor (Cavia porcellus, UniProt H0VZC5).
T1 construct: stomach was extracted from each animal immediately, from which gastric glands were prepared; from tissue; host or cells: gastric (fundic) glands of male Hartley guinea pigs
T1 sequence (H0VZC5 1-426): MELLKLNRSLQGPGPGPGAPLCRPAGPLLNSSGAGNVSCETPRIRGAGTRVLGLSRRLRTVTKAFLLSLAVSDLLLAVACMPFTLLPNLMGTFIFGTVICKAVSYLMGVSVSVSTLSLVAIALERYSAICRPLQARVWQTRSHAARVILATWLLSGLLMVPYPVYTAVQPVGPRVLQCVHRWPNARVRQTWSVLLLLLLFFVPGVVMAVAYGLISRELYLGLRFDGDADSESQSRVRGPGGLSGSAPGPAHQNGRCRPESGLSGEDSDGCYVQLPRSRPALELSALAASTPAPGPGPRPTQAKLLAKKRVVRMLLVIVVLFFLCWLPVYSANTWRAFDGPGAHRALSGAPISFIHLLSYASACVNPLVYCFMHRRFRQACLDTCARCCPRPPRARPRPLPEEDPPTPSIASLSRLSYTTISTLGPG
In words: Gastrin receptor antagonism, displacement of 125I-labeled gastrin, gastric (fundic) gland cells. To be noted: guinea pig gastric glands, 125I-gastrin 0.2 nM, 30 min, 25 °C; read-out: Receptor Gastrin (IC50). The assay is classed as binding, guinea pig (male Hartley). On the procedure: (§1) Male Hartley guinea pig (450-600 g) or male ddY mouse (24-30 g) were used.
(1) Gastrin Receptor Antagonism
Preparation of gastric glands:
Male Hartley guinea pigs (450-600 g) were killed by bleeding and stomach was extracted from each animal immediately, from which gastric glands were prepared.
Preparation of test compounds and procedures of displacing assay
A 1M solution of a compound to be tested in DMSO is prepared and diluted with 50% DMSO to obtain a ten-fold dilution series.
The mixture is incubated for 30 min at 25° C., centrifuged at 2000 rpm for 5 min and the supernatant is removed by aspiration. To the pellet is added ice-cooled incubation buffer and mixed gently, followed by an immediate centrifugation and removal of the supernatant by aspiration. The radioactivity is counted on gamma counter. The same procedure was repeated using 50% DMSO solution or human gastrin I (final concentration, 2 μM) instead of a solution of test compound so as to obtain the control value regarding total binding or the value regarding non-specific binding, respectively. […]
(§2) specific binding of control=total binding (cpm)-non-specific binding (cpm); and specific binding of test compound=[…]-non-specific binding (cpm).
(In general: Displacement assays read how much labelled ligand stays bound in the presence of the test substance.)

For assay [2], the target named is T2, CCK-B receptor (Mus musculus, UniProt P56481).
T2 construct: crude membrane specimen from mouse cerebral cortex; from tissue; host or cells: cerebral cortex of male ddY mice, crude membranes
T2 sequence (P56481 1-453): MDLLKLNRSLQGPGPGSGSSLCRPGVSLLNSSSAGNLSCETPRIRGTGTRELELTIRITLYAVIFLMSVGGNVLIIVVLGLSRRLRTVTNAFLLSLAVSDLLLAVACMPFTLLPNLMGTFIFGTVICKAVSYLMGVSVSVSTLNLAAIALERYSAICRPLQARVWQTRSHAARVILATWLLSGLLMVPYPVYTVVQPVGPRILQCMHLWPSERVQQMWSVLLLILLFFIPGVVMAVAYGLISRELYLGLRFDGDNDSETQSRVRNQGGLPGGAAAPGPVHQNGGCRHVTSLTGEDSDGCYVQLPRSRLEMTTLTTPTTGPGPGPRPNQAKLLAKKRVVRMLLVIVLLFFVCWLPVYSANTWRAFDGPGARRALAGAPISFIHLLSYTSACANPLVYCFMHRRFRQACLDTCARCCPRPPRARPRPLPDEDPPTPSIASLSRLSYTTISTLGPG
In words: CCK-B receptor antagonism, displacement of [3H]CCK-8, cerebral cortex crude membrane. The assay is classed as binding, mouse (male ddY). The following applies: mouse cerebral cortex membrane, [3H]CCK-8 1 nM, 90 min, 25 °C; read-out: Receptor CCK-B (IC50). Here is the method:
as §1
(§3) (2) CCK-A Receptor Antagonism and CCK-B Receptor Antagonism
(§4) Preparation of CCK receptor preparations
(§5) Male ddY mice (24 to 30 g) were killed by decapitation and cerebral cortex (CCK-B) and pancreas (CCK-A) were extracted immediately. Each of cerebral cortex and pancreas was mixed with 50 mM Tris-HCl buffer (pH 7.4) and homogenized with a teflon-glass homogenizer and polytron homogenizer to obtain crude membrane specimens.
(§6) Preparation of test compounds and procedures of displacing assay A 1M solution of a compound to be tested in DMSO is prepared and diluted with 50% DMSO to obtain a ten-fold dilution series.
(§7) The reaction is initiated by the addition of crude membrane specimen to solutions of different concentration each containing [^3 H]CCk-8 (final concentration, 1 nM). The mixture is incubated for 90 min at 25° C., filtered through glass filter with aspiration and washed with a cooled 50 mM Tris buffer. After the addition of Aquazol-2 cocktail the radioactivity is counted. The same procedure was repeated using 50% DMSO solution or Ceruletide (final concentration, 1 μM) instead of a solution of test compound so as to obtain the control value regarding total binding or the value regarding non-specific binding, respectively. […]
as §2

Assay [3] concerns the target T3, CCK-A receptor (Mus musculus, UniProt O08786).
T3 construct: crude membrane specimen from mouse pancreas; from tissue; host or cells: pancreas of male ddY mice, crude membranes
T3 sequence (O08786 1-436): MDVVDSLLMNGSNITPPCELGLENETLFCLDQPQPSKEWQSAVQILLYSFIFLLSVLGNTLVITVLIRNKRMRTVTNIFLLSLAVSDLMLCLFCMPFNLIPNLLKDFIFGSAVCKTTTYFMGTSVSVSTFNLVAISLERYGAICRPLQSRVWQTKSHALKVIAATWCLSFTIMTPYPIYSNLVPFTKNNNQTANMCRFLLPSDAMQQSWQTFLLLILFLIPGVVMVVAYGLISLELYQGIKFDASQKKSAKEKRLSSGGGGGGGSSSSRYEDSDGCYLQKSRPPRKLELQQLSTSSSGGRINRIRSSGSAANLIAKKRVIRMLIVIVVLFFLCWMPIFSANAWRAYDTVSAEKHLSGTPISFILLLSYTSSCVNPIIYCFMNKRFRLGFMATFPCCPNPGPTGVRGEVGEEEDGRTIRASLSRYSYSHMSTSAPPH
In words: CCK-A receptor antagonism, displacement of [3H]CCK-8, pancreas crude membrane. In kind it is binding, mouse (male ddY). To be noted: mouse pancreas membrane, [3H]CCK-8 1 nM, 90 min, 25 °C; read-out: Receptor CCK-A (IC50). On the procedure: as §1, §3, §4, §5, §6, §7, §2

In assay [4] the test system is gastric acid secretion. In words: Inhibitory effect on gastric acid secretion by Schild method (pentagastrin-stimulated). In kind it is in vivo, rat (male Sprague Dawley). The following applies: intraduodenal, rat, read-out: Inhibitory Effect on acid secretion (Schild method), percent inhibition. From the text: Evaluation of Inhibitory Effect on Gastric Acid Secretion by Schild Method
Twenty four hour starved (ad libitum for water) male Sprague Dawley rats (8-week-old) were anesthetized with urethane (1.5 g/kg S.C.) and kept breathing with esophagus cannulas. After laparotomy, esophagus cannulas were inserted orally up to proventriculus and ligated around gastric cardiac. Perfusion cannulas were inserted from duodenum into stomach and ligated around pylorus. Another cannulas were placed into duodenum and ligated for administration of drug. After sutra of abdomen, stomach was perfused via the esophagus cannulas with physiological saline (37° C.) while collecting perfusate for a 15 min interval. The perfusate was subjected to titration with 0.001 N NaOH solution to determine the acidity. When the basal acid secretion became stable, pentagastrin ([…]) was administered in a sustained manner via common carotid vein for about 90 min until the acid secretion reached approximately the highest level, when a test compound (0.5% M.C. suspension) was administered into duodenum through cannulas. The perfusate was collected for a 15 min interval to monitor the acid secretion for 90 min. The percent inhibition was calculated as follows:
Percent inhibition (%)=100×(A-B)/(C-B)
A: the minimum value of total acidity observed after the administration of a test compound;
B: the total acidity obtained immediately before the administration of pentagastrin; and
C: the total acidity obtained immediately before the administration of a test compound.

Molecules are shown by their SMILES.

Consider `CCOC(=O)COc1cccc(NC(=O)NC2C(=O)N(CC(=O)C3CC3)c3ccccc3N(CC(=O)C3CC3)C2=O)c1` [Compound 17-v, 1,5-Bis-(cyclopropylcarbonylmethyl)-3-(N'-(m-(carboethoxymethoxy)phenyl)ureido)-1H-1,5-benzodiazepine-2,4(3H,5H)-dione], for which the results for the IC50 in assay [1], in assay [2] and in assay [3] were 0.016 µM, 0.18 µM and 3.6 µM, respectively. In addition, in assay [4], the inhibition in vivo at 0.3 mg/kg was determined as 59%.
On to `O=C(O)COc1cccc(NC(=O)NC2C(=O)N(CC(=O)C3CC3)c3ccccc3N(CC(=O)C3CC3)C2=O)c1` [Compound 17-vi, 1,5-Bis-(cyclopropylcarbonylmethyl)-3-(N'-(m-(carboxymethoxy)phenyl)ureido)-1H-1,5-benzodiazepine-2,4(3H,5H)-dione], for which the IC50 (commonly the concentration that gives 50% inhibition) in assay [1] was determined as 0.003 µM; in assay [2] it was 0.016 µM; in assay [3] it was 4.4 µM. Also, the inhibition in vivo at 0.3 mg/kg in assay [4] was 22%.
Consider `O=C(Nc1cccc(OCc2nnn[nH]2)c1)NC1C(=O)N(CC(=O)C2CC2)c2ccccc2N(CC(=O)C2CC2)C1=O` [Compound 17-vii, 1,5-Bis-(cyclopropylcarbonylmethyl)-3-(N'-(m-(tetrazoylmethoxy)phenyl)ureido)-1H-1,5-benzodiazepine-2,4(3H,5H)-dione], for which the IC50 in assay [1] turned out to be 0.011 µM; in assay [2], 0.004 µM; in assay [3] it was 1.8 µM. Also, in assay [4], the inhibition in vivo at 0.3 mg/kg came out at 68%.
For the molecule `CCOC(=O)CSc1cccc(NC(=O)NC2C(=O)N(CC(=O)C3CC3)c3ccccc3N(CC(=O)C3CC3)C2=O)c1` [Compound 17-viii, 1,5-Bis-(cyclopropylcarbonylmethyl)-3-(N'-(m-(carboethoxymethylthio)phenyl)ureido)-1H-1,5-benzodiazepine-2,4(3H,5H)-dione], the figures for the IC50 in assay [1], in assay [2] and in assay [3] were 0.002 µM, 0.006 µM and 0.46 µM, respectively. Besides, in assay [4], the inhibition in vivo at 0.3 mg/kg came out at 76%.
On to `O=C(Nc1cccc(-c2nc(=O)o[nH]2)c1)NC1C(=O)N(CC(=O)C2CC2)c2ccccc2N(CC(=O)C2CC2)C1=O` [Compound 17-x, 1,5-Bis-(cyclopropylcarbonylmethyl)-3-(N'-(m-(5-keto-1,2,4-oxadiazol-3-yl)phenyl)ureido)-1H-1,5-benzodiazepine-2,4(3H,5H)-dione], for which the half-maximal inhibitory concentration (IC50) in assay [1] is 0.001 µM; in assay [2], 0.003 µM; in assay [3], 0.36 µM. Moreover, in assay [4], the inhibition in vivo at 0.3 mg/kg is 70%.
For `CC(=O)NS(=O)(=O)c1cccc(NC(=O)NC2C(=O)N(CC(=O)C3CC3)c3ccccc3N(CC(=O)C3CC3)C2=O)c1` [Compound 17-xi, 1,5-Bis-(cyclopropylcarbonylmethyl)-3-(N'-(m-(acetylsulfamoyl)phenyl)ureido)-1H-1,5-benzodiazepine-2,4(3H,5H)-dione] the same measures were 0.006 µM, 0.115 µM, greater than 10 µM and 39%.
As for `COC(=O)Cc1cccc(NC(=O)NC2C(=O)N(CC(=O)C3CC3)c3ccccc3N(CC(=O)C3CC3)C2=O)c1` [Compound 17-xii, 1,5-Bis-(cyclopropylcarbonylmethyl)-3-(N'-(m-(carbomethoxymethyl)phenyl)ureido)-1H-1,5-benzodiazepine-2,4(3H,5H)-dione], the half-maximal inhibitory concentration (IC50) in assay [1] turned out to be 0.015 µM; in assay [2] it was 0.048 µM; in assay [3] it was 2.5 µM. For the same molecule, the inhibition in vivo at 0.3 mg/kg in assay [4] was found to be 48%.
For `O=C(O)Cc1cccc(NC(=O)NC2C(=O)N(CC(=O)C3CC3)c3ccccc3N(CC(=O)C3CC3)C2=O)c1` [Compound 17-xiii, 1,5-Bis-(cyclopropylcarbonylmethyl)-3-(N'-(m-(carbomethyl)phenyl)ureido)-1H-1,5-benzodiazepine-2,4(3H,5H)-dione] the same measures were 0.002 µM, 0.007 µM, 4.8 µM and 21%.
On to `O=C(Nc1cccc(SCc2nnn[nH]2)c1)NC1C(=O)N(CC(=O)C2CC2)c2ccccc2N(CC(=O)C2CC2)C1=O` [Compound 17-xvii], for which the values for the IC50 in assay [1], in assay [2] and in assay [3] were less than 0.001 µM, 0.001 µM and 1.3 µM, respectively. For the same molecule, the inhibition in vivo at 0.1 mg/kg in assay [4] (0.1 mg/kg) worked out at 30%.
On to `O=C(Nc1cccc(-c2nnn[nH]2)c1)NC1C(=O)N(CC(=O)N2CCCC2)c2ccccc2N(CC(=O)N2CCCC2)C1=O` [Compound 18-iv], for which the IC50 in assay [1] worked out at 0.004 µM; in assay [2], 0.038 µM; in assay [3] it was 3.6 µM. For the same molecule, the inhibition in vivo at 0.3 mg/kg in assay [4] was 65%.
For `O=C(O)Cc1cccc(NC(=O)NC2C(=O)N(CC(=O)N3CCCC3)c3ccccc3N(CC(=O)N3CCCC3)C2=O)c1` [Compound 18-xiii, 1,5-Bis-(pyrrolidinocarbonylmethyl)-3-(N'-(m-(carboxymethyl)phenyl)ureido)-1H-1,5-benzodiazepine-2,4(3H,5H)-dione] the same measures were 0.007 µM, 0.029 µM, 10.5 µM and 26%.
